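Step 1: Grow cells in 96-well plates. Step 2: Expose to compound for 48 hours at 5 concentrations. Step 3: Interpolate endpoints linearly; if unreached, use highest concentration. GI50 is the concentration that inhibits growth by half.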 The source made the active and inactive calls. No stated cut-off is given here; in the data, active = GI50 up to about 1.1 µM and inactive = higher.
Experiments:
Test in all cases: NCI tumour cell line growth inhibition, 48 h
OVCAR-3 = tested on: OVCAR-3
IGROV-1 = tested on: IGROV-1
KM12 = tested on: KM12
MDA-MB-435 = tested on: MDA-MB-435
EKVX = tested on: EKVX
BT-549 = tested on: BT-549
T47D = tested on: T47D
SK-MEL-5 = tested on: SK-MEL-5
SK-MEL-28 = tested on: SK-MEL-28
U-251 = tested on: U-251
SN12C = tested on: SN12C
MDA-N = tested on: MDA-N
UACC-62 = tested on: UACC-62
A498 = tested on: A498
Hs-578T = tested on: Hs-578T
RPMI-8226 = tested on: RPMI-8226
LOX IMVI = tested on: LOX IMVI
K562 = tested on: K562
SR = tested on: SR

Measured: GI50

CCCCSC1=N/C(=C\c2ccco2)C(=O)N1
inactive: OVCAR-3 48.4 µM | IGROV-1 36.6 µM | KM12 37.6 µM | MDA-MB-435 36.7 µM | EKVX 36.6 µM | BT-549 33.2 µM | T47D 16.5 µM | SK-MEL-5 35.4 µM | SK-MEL-28 42.5 µM | U-251 74.6 µM | SN12C 99.1 µM | MDA-N 42.4 µM | UACC-62 42.1 µM | A498 24.2 µM | Hs-578T 29.9 µM | RPMI-8226 34.1 µM

C=CC[C@@H](N)C(=O)N(C)[C@@H](C)[C@@H](O)c1ccccc1
inactive: OVCAR-3 > 100 µM | IGROV-1 82.8 µM | KM12 > 100 µM | MDA-MB-435 > 100 µM | BT-549 > 100 µM | T47D > 100 µM | SK-MEL-5 > 100 µM | LOX IMVI > 100 µM | SK-MEL-28 > 100 µM | U-251 > 100 µM | MDA-N > 100 µM | UACC-62 > 100 µM | A498 > 100 µM | Hs-578T > 100 µM

COc1ccccc1NC(=S)Nc1cc(C)cc(C)n1
inactive: K562 > 100 µM | OVCAR-3 > 70.8 µM | IGROV-1 > 100 µM | KM12 > 100 µM | MDA-MB-435 > 100 µM | EKVX > 100 µM | BT-549 > 100 µM | T47D > 100 µM | SK-MEL-5 > 100 µM | LOX IMVI > 100 µM | SK-MEL-28 > 100 µM | U-251 > 100 µM | SN12C > 100 µM | MDA-N > 100 µM | UACC-62 > 100 µM | A498 > 100 µM | RPMI-8226 > 100 µM

CCOC(=O)C(C)c1nc2cc(C(F)(F)F)ccc2[nH]c1=O (stereo unspecified)
inactive: K562 59.8 µM | OVCAR-3 82 µM | KM12 > 100 µM | MDA-MB-435 > 100 µM | EKVX 46.5 µM | BT-549 > 100 µM | T47D 15.4 µM | SK-MEL-5 42.2 µM | LOX IMVI > 100 µM | SK-MEL-28 > 100 µM | U-251 > 100 µM | SN12C > 100 µM | MDA-N > 100 µM | UACC-62 > 100 µM | A498 64.3 µM | Hs-578T > 100 µM | RPMI-8226 51.9 µM

O=[N+]([O-])c1ccc(CSc2nn(Cc3ccc([N+](=O)[O-])cc3)cc3ncnc2-3)cc1
inactive: K562 31.8 µM | OVCAR-3 56.2 µM | IGROV-1 20.4 µM | KM12 30.4 µM | MDA-MB-435 21.1 µM | EKVX 69.3 µM | BT-549 21 µM | T47D 44.6 µM | SK-MEL-5 32 µM | LOX IMVI 33.9 µM | SK-MEL-28 22.1 µM | U-251 > 10 µM | SN12C 57.4 µM | MDA-N 33 µM | UACC-62 17.5 µM | A498 18.4 µM | RPMI-8226 14.8 µM

Cn1c(C(C#N)c2nc(Cl)ncc2Br)nc2ccccc21 (stereo unspecified)
inactive: OVCAR-3 > 100 µM | IGROV-1 > 100 µM | KM12 > 100 µM | MDA-MB-435 > 100 µM | EKVX > 100 µM | BT-549 > 100 µM | T47D > 100 µM | SK-MEL-5 > 100 µM | LOX IMVI > 100 µM | SK-MEL-28 > 100 µM | U-251 > 100 µM | SN12C > 100 µM | MDA-N > 100 µM | A498 > 100 µM | RPMI-8226 > 100 µM

CC1(C)OC2OC(COC(=O)c3ccc(C#N)cc3)C3OC(C)(C)OC3C2O1 (stereo unspecified)
inactive: K562 > 75 µM | OVCAR-3 > 75 µM | IGROV-1 > 75 µM | KM12 > 75 µM | SR > 75 µM | MDA-MB-435 > 75 µM | EKVX > 75 µM | BT-549 > 75 µM | SK-MEL-5 > 75 µM | LOX IMVI > 75 µM | SK-MEL-28 > 75 µM | U-251 > 75 µM | SN12C > 75 µM | MDA-N > 75 µM | UACC-62 > 75 µM | A498 > 75 µM | RPMI-8226 57.8 µM

N#CCCN(C(=O)Nc1ccccc1)[C@H]1CCCC[C@@H]1N(C(=O)Nc1ccccc1)c1ccccc1
inactive: K562 49.1 µM | OVCAR-3 > 100 µM | IGROV-1 61 µM | KM12 32.8 µM | SR 19.3 µM | MDA-MB-435 > 100 µM | EKVX 65.5 µM | BT-549 > 100 µM | T47D > 100 µM | SK-MEL-5 > 100 µM | LOX IMVI > 100 µM | SK-MEL-28 > 100 µM | U-251 > 100 µM | SN12C > 100 µM | MDA-N > 100 µM | UACC-62 > 100 µM | RPMI-8226 36.7 µM

CCn1cnc2c(NC(C)=O)ncnc21
inactive: K562 > 100 µM | OVCAR-3 > 100 µM | IGROV-1 > 100 µM | KM12 > 100 µM | MDA-MB-435 > 100 µM | EKVX > 100 µM | BT-549 > 100 µM | T47D > 100 µM | SK-MEL-5 > 100 µM | LOX IMVI > 100 µM | SK-MEL-28 > 100 µM | U-251 > 100 µM | SN12C > 100 µM | MDA-N > 100 µM | UACC-62 > 100 µM | RPMI-8226 > 100 µM

Cn1c2ccccc2c2c3c(c4c5ccccc5n(C)c4c21)C(=O)N(c1ccccc1)C3=O
inactive: K562 > 100 µM | OVCAR-3 > 100 µM | IGROV-1 98.6 µM | KM12 > 100 µM | SR > 100 µM | MDA-MB-435 > 100 µM | EKVX > 100 µM | BT-549 > 100 µM | T47D > 100 µM | SK-MEL-5 > 100 µM | LOX IMVI > 100 µM | SK-MEL-28 > 100 µM | U-251 > 100 µM | SN12C > 100 µM | MDA-N > 100 µM | UACC-62 > 100 µM | A498 > 100 µM | RPMI-8226 > 100 µM

CC(=O)/N=C1\NC(=O)/C(=C/c2ccc(/C=C3/C(=O)N/C(=N\C(C)=O)N3C)cc2)N1C
inactive: OVCAR-3 > 100 µM | IGROV-1 > 100 µM | KM12 > 100 µM | MDA-MB-435 > 100 µM | EKVX > 100 µM | BT-549 > 100 µM | T47D > 100 µM | SK-MEL-5 > 100 µM | LOX IMVI > 100 µM | SK-MEL-28 > 100 µM | U-251 > 100 µM | SN12C > 100 µM | MDA-N > 100 µM | UACC-62 > 100 µM | A498 > 100 µM

CC(=O)OCCC1c2ccccc2-n2nc(-c3ccccc3)c(O)c21 (stereo unspecified)
inactive: K562 10.8 µM | OVCAR-3 21.3 µM | IGROV-1 > 10 µM | KM12 16.6 µM | SR 11.4 µM | MDA-MB-435 16.9 µM | EKVX 15.9 µM | BT-549 17.1 µM | SK-MEL-5 17 µM | LOX IMVI 13.7 µM | SK-MEL-28 16.2 µM | U-251 13.3 µM | SN12C 14.8 µM | MDA-N 17.5 µM | A498 16.4 µM | Hs-578T 19.5 µM | RPMI-8226 8.07 µM

CC(C)(OCc1ccccc1)c1ccccc1P(c1ccccc1)c1ccccc1
inactive: K562 45.3 µM | OVCAR-3 46.9 µM | IGROV-1 50.1 µM | KM12 23.1 µM | SR 34.8 µM | MDA-MB-435 37.9 µM | EKVX 32.9 µM | BT-549 28.8 µM | T47D 28.4 µM | SK-MEL-5 35 µM | SK-MEL-28 42.2 µM | U-251 27.9 µM | SN12C 46 µM | UACC-62 47.5 µM | A498 89.3 µM | Hs-578T 47.9 µM | RPMI-8226 4.04 µM

CC1=CCC(C)=Nc2nc3ccccc3n21
inactive: K562 > 100 µM | OVCAR-3 > 100 µM | IGROV-1 > 100 µM | KM12 > 100 µM | SR > 100 µM | MDA-MB-435 > 100 µM | EKVX > 100 µM | BT-549 > 100 µM | T47D > 100 µM | SK-MEL-5 > 100 µM | LOX IMVI > 100 µM | SK-MEL-28 > 100 µM | U-251 > 100 µM | SN12C > 100 µM | UACC-62 > 100 µM | A498 > 100 µM | Hs-578T > 100 µM | RPMI-8226 > 100 µM

COc1cc(O)cc(/C=C/c2ccc(O)cc2)c1
inactive: K562 28.2 µM | OVCAR-3 41.3 µM | IGROV-1 53.3 µM | KM12 25.4 µM | SR 42 µM | MDA-MB-435 31.3 µM | EKVX 28.4 µM | BT-549 13.6 µM | T47D 44.7 µM | SK-MEL-5 30.7 µM | SK-MEL-28 > 100 µM | U-251 22.4 µM | SN12C 27.5 µM | UACC-62 20.7 µM | A498 33.1 µM | Hs-578T 44.7 µM | RPMI-8226 4.07 µM

CN(C)CCCN1c2ccc(O)cc2Sc2ccc(Cl)cc21 [7-HYDROXYCHLORPROMAZINE]
inactive: K562 3.86 µM | OVCAR-3 11.8 µM | IGROV-1 9.84 µM | KM12 10.5 µM | SR 2.96 µM | MDA-MB-435 8.91 µM | EKVX 18.4 µM | BT-549 12.4 µM | T47D 21 µM | SK-MEL-5 13.8 µM | LOX IMVI 6.71 µM | SK-MEL-28 11.1 µM | U-251 9.86 µM | SN12C 10.3 µM | UACC-62 9.91 µM | A498 16.5 µM | Hs-578T 4.04 µM | RPMI-8226 4.5 µM

Source: ChEMBL document CHEMBL1201862, “PubChem BioAssay data set” (2004)
